Experimental data published in US10722514B2 (FLX Bio, Inc., priority 2017, dated 2020).

Target: T1, recombinant full-length USP7 (Homo sapiens, UniProt Q93009)
T1 construct: A 25 μl reaction volume containing recombinant full-length USP7 (62 pM)
Experiment: USP7-mediated ubiquitin-rhodamine cleavage assay
Assay type: biochemical
Settings: recombinant full-length USP7 62 pM; ubiquitin-rhodamine 100 nM; 30-minute incubation with compound, 1 hour reaction at room temperature; read-out: Potency: USP7 IC50
Description: In the case of the USP7 deubiquitylating enzyme, the IC50 of an USP7 inhibiting compound is the concentration of the compound that inhibits 50% of the activity observed in a USP7-mediated ubiquitin-rhodamine cleavage assay.
For the USP7 inhibitors disclosed herein, their potency was measured using the following test method.
A 25 μl reaction volume containing recombinant full-length USP7 (62 pM) in 20 mM HEPES pH 7.3, 150 mM NaCl, 1 mM TCEP, and 125 μg/ml BSA was assembled in wells of 384 well plates. Test compounds were dispensed with a Hewlett Packard D300 digital dispenser (1% final DMSO). Following a 30-minute incubation at room temperature, ubiquitin-rhodamine was added with the D300 to a final concentration of 100 nM and the reaction was allowed to proceed for 1 hour at room temperature protected from light. The reaction was stopped by the addition of 5 μl 1M acetic acid. Rhodamine fluorescence was measured using an Envision plate reader (Perkin Elmer) and IC50 values were determined by non-linear regression using a 4-parameter fit in a Dotmatics (Bishops Stortford, Hertfordshire, England) software package.

T1 sequence (Q93009 whole entry): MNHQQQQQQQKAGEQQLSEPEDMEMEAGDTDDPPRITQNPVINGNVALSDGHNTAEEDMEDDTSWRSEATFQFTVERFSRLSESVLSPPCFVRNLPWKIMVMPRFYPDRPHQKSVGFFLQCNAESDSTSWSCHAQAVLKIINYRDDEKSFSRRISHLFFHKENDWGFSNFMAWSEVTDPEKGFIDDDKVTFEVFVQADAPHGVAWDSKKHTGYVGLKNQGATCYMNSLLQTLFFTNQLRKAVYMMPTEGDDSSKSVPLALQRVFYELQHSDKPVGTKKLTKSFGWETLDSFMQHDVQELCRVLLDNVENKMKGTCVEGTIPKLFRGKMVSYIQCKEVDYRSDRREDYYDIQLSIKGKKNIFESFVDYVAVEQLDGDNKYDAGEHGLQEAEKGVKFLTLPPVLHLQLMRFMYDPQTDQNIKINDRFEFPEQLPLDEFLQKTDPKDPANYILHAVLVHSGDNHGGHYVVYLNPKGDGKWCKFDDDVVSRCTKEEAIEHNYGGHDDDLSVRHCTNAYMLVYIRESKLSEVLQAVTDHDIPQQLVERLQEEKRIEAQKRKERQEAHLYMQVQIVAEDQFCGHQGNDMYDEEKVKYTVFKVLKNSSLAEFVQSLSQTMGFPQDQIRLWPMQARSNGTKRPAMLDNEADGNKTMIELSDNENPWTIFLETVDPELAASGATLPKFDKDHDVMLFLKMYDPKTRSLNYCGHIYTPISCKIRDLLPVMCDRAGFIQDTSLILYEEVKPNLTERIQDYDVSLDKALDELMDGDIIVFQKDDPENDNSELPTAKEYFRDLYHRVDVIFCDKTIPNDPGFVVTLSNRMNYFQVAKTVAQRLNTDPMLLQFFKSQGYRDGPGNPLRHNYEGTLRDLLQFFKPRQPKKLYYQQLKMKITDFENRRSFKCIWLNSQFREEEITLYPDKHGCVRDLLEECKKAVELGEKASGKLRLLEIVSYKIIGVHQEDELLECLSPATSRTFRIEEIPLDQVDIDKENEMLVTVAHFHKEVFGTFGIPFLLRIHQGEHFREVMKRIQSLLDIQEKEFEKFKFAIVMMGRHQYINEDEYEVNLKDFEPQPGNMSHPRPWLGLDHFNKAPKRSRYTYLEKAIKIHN

IC50 | Compound
< 1 µM | Cc1cc(Cl)cc(-c2ccnc3cc(CN4C(=O)N(C)C(C)(C)C4=O)sc23)c1O[C@@H]1CNC[C@@H]1F [Example 155, 3-((7-(5-Chloro-2-(((3R,4S)-4-fluoropyrrolidin-3-yl)oxy)-3-methylphenyl)thieno[3,2-b]pyridin-2-yl)methyl)-1,5,5-trimethylimidazolidine-2,4-dione]
< 1 µM | Cc1cc(Cl)cc(-c2ccnc3cc(CN4C(=O)CCC4=O)sc23)c1O[C@H]1CCCNC1 [Example 211, (S)-1-((7-(5-Chloro-3-methyl-2-(piperidin-3-yloxy)phenyl)thieno[3,2-b]pyridin-2-yl)methyl)pyrrolidine-2,5-dione]
< 1 µM | Cc1cc(Cl)cc(-c2ccnc3cc(Cn4c(=O)ccn(CC(F)(F)F)c4=O)sc23)c1O[C@@H]1CNCC[C@H]1C [Example 342, 3-[[7-[5-chloro-3-methyl-2-[[(3S,4R)-4-methyl-3-piperidyl]oxy]phenyl]thieno[3,2-b]pyridin-2-yl]methyl]-1-(2,2,2-trifluoroethyl)pyrimidine-2,4-dione]
10 to 30 µM | Cc1cc(Cl)cc(-c2ccnc3cc(CO)sc23)c1OCC1CCNC1 (stereo not shown) [Example 70, (7-(5-Chloro-3-methyl-2-(pyrrolidin-3-ylmethoxy)phenyl)thieno[3,2-b]pyridin-2-yl)methanol]
< 1 µM | Cc1cc(Cl)cc(-c2ccnc3cc(CN4C(=O)CCC4=O)sc23)c1O[C@@H]1CN(CC(C)(C)C)C[C@@H]1F [Example 336, 1-[[7-[5-chloro-2-[(3R,4S)-1-(2,2-dimethylpropyl)-4-fluoro-pyrrolidin-3-yl]oxy-3-methyl-phenyl]thieno[3,2-b]pyridin-2-yl]methyl]pyrrolidine-2,5-dione]
< 1 µM | Cc1cc(Cl)cc(-c2ccnc3cc(CN4C(=O)C5C(C4=O)C5(C)C)sc23)c1O[C@H]1CCCN[C@@H]1C (stereo partly drawn) [Example 364, 3-[[7-[5-chloro-3-methyl-2-[[(2R,3S)-2-methyl-3-piperidyl]oxy]phenyl]thieno[3,2-b]pyridin-2-yl]methyl]-6,6-dimethyl-3-azabicyclo[3.1.0]hexane-2,4-dione; 2,2,2-trifluoroacetic acid]
< 1 µM | Cc1cc(Cl)cc(-c2ccnc3cc(CN4C(=O)C5CC5C4=O)sc23)c1O[C@@H]1CCN(C)C[C@@H]1C (stereo partly drawn) [Example 326, 3-[[7-[5-chloro-2-[[(3S,4R)-1,3-dimethyl-4-piperidyl]oxy]-3-methyl-phenyl]thieno[3,2-b]pyridin-2-yl]methyl]-3-azabicyclo[3.1.0]hexane-2,4-dione]
< 1 µM | Cc1cc(Cl)cc(-c2ccnc3cc(CN4C(=O)C5CC5C4=O)sc23)c1O[C@@H]1CCNC[C@@H]1C (stereo partly drawn) [Example 324, 3-[[7-[5-chloro-3-methyl-2-[[(3S,4R)-3-methyl-4-piperidyl]oxy]phenyl]thieno[3,2-b]pyridin-2-yl]methyl]-3-azabicyclo[3.1.0]hexane-2,4-dione]
> 30 µM | Cc1cc(Cl)cc(-c2ccnc3cc(CO)sc23)c1O[C@@H]1CCC[C@H]1N(C)C [Example 92, (7-(5-Chloro-2-(((1R,2R)-2-(dimethylamino)cyclopentyl)oxy)-3-methylphenyl)thieno[3,2-b]pyridin-2-yl)methanol]
1 to 10 µM | Cc1cc(C#N)cc(-c2ccnc3cc(COC4=NS(=O)(=O)CC4)sc23)c1O[C@@H]1CNC[C@@H]1F [Example 115, 3-(2-(((1,1-Dioxido-4,5-dihydroisothiazol-3-yl)oxy)methyl)thieno[3,2-b]pyridin-7-yl)-4-(((3R,4S)-4-fluoropyrrolidin-3-yl)oxy)-5-methylbenzonitrile]

Compound | IC50
Cc1cc(Cl)cc(-c2ccnc3cc(CO)sc23)c1O[C@@H]1C[C@H]2CC[C@@H](C1)N2 [Example 192, (7-(2-(((1R,3S,5S)-8-Azabicyclo[3.2.1]octan-3-yl)oxy)-5-chloro-3-methylphenyl)thieno[3,2-b]pyridin-2-yl)methanol] | 1 to 10 µM

Same assay, conditions: recombinant full-length USP7 62 pM; ubiquitin-rhodamine 100 nM; 30-minute incubation, 1 hour reaction at room temperature; read-out: Potency (USP7 IC50)

Compound | IC50
COC[C@@H]1CCCN1C1CC(Oc2c(C)cc(Cl)cc2-c2ccnc3cc(Cn4c(=O)ccn(CC(F)(F)F)c4=O)sc23)C1 (stereo partly drawn) [Example 686, 3-[[7-[5-chloro-2-[3-[(2S)-2-(methoxymethyl)pyrrolidin-1-yl]cyclobutoxy]-3-methyl-phenyl]thieno[3,2-b]pyridin-2-yl]methyl]-1-(2,2,2-trifluoroethyl)pyrimidine-2,4-dione; 2,2,2-trifluoroacetic acid] | < 1 µM

Same assay, conditions: recombinant full-length USP7 62 pM; ubiquitin-rhodamine 100 nM; 30-minute pre-incubation, 1 hour reaction at room temperature; read-out: Potency (USP7 IC50)

IC50 | Compound
< 1 µM | Cc1cc(Cl)cc(-c2ccnc3cc(Cn4c(=O)ccn(C)c4=O)sc23)c1O[C@@H]1CNC[C@H](C)C1 [Example 524, 3-[[7-[5-chloro-3-methyl-2-[[(3S,5R)-5-methyl-3-piperidyl]oxy]phenyl]thieno[3,2-b]pyridin-2-yl]methyl]-1-methyl-pyrimidine-2,4-dione]
< 1 µM | Cc1cc(Cl)cc(-c2ccnc3cc(CN4C(=O)CCC4=O)sc23)c1O[C@@H]1CNC[C@H](F)C1 [Example 424, 1-[[7-[5-chloro-2-[[(3S,5R)-5-fluoro-3-piperidyl]oxy]-3-methyl-phenyl]thieno[3,2-b]pyridin-2-yl]methyl]pyrrolidine-2,5-dione]
< 1 µM | Cc1cc(Cl)cc(-c2ccnc3cc(Cn4c(=O)ccn(C)c4=O)sc23)c1O[C@@H]1CNC[C@@H](O)C1 [Example 500, 3-[[7-[5-chloro-2-[[(3S,5S)-5-hydroxy-3-piperidyl]oxy]-3-methyl-phenyl]thieno[3,2-b]pyridin-2-yl]methyl]-1-methyl-pyrimidine-2,4-dione]
< 1 µM | Cc1cc(Cl)cc(-c2ccnc3cc(Cn4c(=O)ccn(C)c4=O)sc23)c1OC1CCNCC1(C)C (stereo not shown) [Example 546, 3-[[7-[5-chloro-2-[(3,3-dimethyl-4-piperidyl)oxy]-3-methyl-phenyl]thieno[3,2-b]pyridin-2-yl]methyl]-1-methyl-pyrimidine-2,4-dione; 2,2,2-trifluoroacetic acid]
< 1 µM | Cc1cc(Cl)cc(-c2ncnc3cc(Cn4c(=O)ccn(CC(F)(F)F)c4=O)sc23)c1O[C@@H]1CCNC[C@H]1C [Example 561, 3-[[4-[5-chloro-3-methyl-2-[[(3R,4R)-3-methyl-4-piperidyl]oxy]phenyl]thieno[3,2-d]pyrimidin-6-yl]methyl]-1-(2,2,2-trifluoroethyl)pyrimidine-2,4-dione]
< 1 µM | Cc1cc(Cl)cc(-c2ccnc3cc(Cn4c(=O)ccn(C5CCC5)c4=O)sc23)c1O[C@H]1CCCNC1 [Example 477, 3-[[7-[5-chloro-3-methyl-2-[[(3S)-3-piperidyl]oxy]phenyl]thieno[3,2-b]pyridin-2-yl]methyl]-1-cyclobutyl-pyrimidine-2,4-dione]
< 1 µM | Cc1cc(Cl)cc(-c2ccnc3cc(CN4C(=O)C[C@@H](F)C4=O)sc23)c1OC1CCNCC1 [Example 414, (3R)-1-[[7-[5-chloro-3-methyl-2-(4-piperidyloxy)phenyl]thieno[3,2-b]pyridin-2-yl]methyl]-3-fluoro-pyrrolidine-2,5-dione]
< 1 µM | Cc1cc(Cl)cc(-c2ccnc3cc(Cn4c(=O)ccn(C)c4=O)sc23)c1O[C@@H]1CN(CCO)C[C@@H]1F [Example 467, 3-[[7-[5-chloro-2-[(3R,4S)-4-fluoro-1-(2-hydroxyethyl)pyrrolidin-3-yl]oxy-3-methyl-phenyl]thieno[3,2-b]pyridin-2-yl]methyl]-1-methyl-pyrimidine-2,4-dione; 2,2,2-trifluoroacetic acid]
< 1 µM | Cc1cc(Cl)cc(-c2ccnc3cc(Cn4c(=O)ccn(CC(F)(F)F)c4=O)sc23)c1O[C@@H]1CCNC[C@H]1C [Example 558, 3-[[7-[5-chloro-3-methyl-2-[[(3R,4R)-3-methyl-4-piperidyl]oxy]phenyl]thieno[3,2-b]pyridin-2-yl]methyl]-1-(2,2,2-trifluoroethyl)pyrimidine-2,4-dione]
< 1 µM | Cc1cc(Cl)cc(-c2ccnc3cc(Cn4c(=O)ccn(C)c4=O)sc23)c1OC1CN2CCC1C2 [Example 530, 3-[[7-[2-[[(1R,3S,4S)-1-azabicyclo[2.2.1]heptan-3-yl]oxy]-5-chloro-3-methyl-phenyl]thieno[3,2-b]pyridin-2-yl]methyl]-1-methyl-pyrimidine-2,4-dione]
< 1 µM | Cc1cc(Cl)cc(-c2ccnc3cc(Cn4c(=O)[nH]cc(C(F)(F)F)c4=O)sc23)c1O[C@H]1CCCNC1 [Example 571, 3-[[7-[5-chloro-3-methyl-2-[[(3S)-3-piperidyl]oxy]phenyl]thieno[3,2-b]pyridin-2-yl]methyl]-5-(trifluoromethyl)-1H-pyrimidine-2,4-dione]
< 1 µM | Cc1cc(Cl)cc(-c2ccnc3cc(Cn4c(=O)ccn(CC(F)(F)F)c4=O)sc23)c1OC1CC2CNC1C2 (stereo not shown) [Example 535, 3-[[7-[2-(3-azabicyclo[2.2.1]heptan-5-yloxy)-5-chloro-3-methyl-phenyl]thieno[3,2-b]pyridin-2-yl]methyl]-1-(2,2,2-trifluoroethyl)pyrimidine-2,4-dione]
< 1 µM | Cc1cc(Cl)cc(-c2ccnc3cc(Cn4c(=O)ccn(C)c4=O)sc23)c1O[C@@H]1CCNC[C@]1(C)F [Example 544, 3-[[7-[5-chloro-2-[[(3S,4R)-3-fluoro-3-methyl-4-piperidyl]oxy]-3-methyl-phenyl]thieno[3,2-b]pyridin-2-yl]methyl]-1-methyl-pyrimidine-2,4-dione; 2,2,2-trifluoroacetic acid]
